Source: paper PMC5218480 (PLoS ONE, 2017)

System: MV-4-11 cells
Experiment: Gene expression microarray analysis (Affymetrix PrimeView) and GSEA
Type: cell-based, human
Design: RFU PODN (11730768_x_at) / Fold change /veh PODN (11730768_x_at) / RFU LINC00158 (11744669_a_at) / Fold change /veh LINC00158 (11744669_a_at) / RFU DUSP10 (11751237_a_at) / Fold change /veh DUSP10 (11751237_a_at) / RFU ID3 (11757404_x_at) / Fold change /veh ID3 (11757404_x_at) / RFU PLEKHG5 (11737974_s_at) / Fold change /veh PLEKHG5 (11737974_s_at) / RFU LRRC4B (11730491_at) / Fold change /veh LRRC4B (11730491_at) / RFU GIMAP4 (11747438_a_at) / Fold change /veh GIMAP4 (11747438_a_at) / RFU KRT8 (11758183_x_at) / Fold change /veh KRT8 (11758183_x_at) / RFU CNN1 (11734310_a_at) / Fold change /veh CNN1 (11734310_a_at) / RFU VPS37D (11726825_at) / Fold change /veh VPS37D (11726825_at) / RFU C10orf10 (11716522_x_at) / Fold change /veh C10orf10 (11716522_x_at) / RFU KIR2DL2 /// KIR2DL4 /// KIR2DL5A /// KIR2DL5B /// KIR2DS1 /// KIR2DS2 /// KIR2DS3 /// KIR2DS4 /// KIR3DL3 /// KIR3DL3 /// KIR3DS1 (11738374_at) / Fold change /veh KIR2DL2 /// KIR2DL4 /// KIR2DL5A /// KIR2DL5B /// KIR2DS1 /// KIR2DS2 /// KIR2DS3 /// KIR2DS4 /// KIR3DL3 /// KIR3DL3 /// KIR3DS1 (11738374_at) / RFU C1QL1 (11718748_at) / Fold change /veh C1QL1 (11718748_at) / RFU TMPRSS4 (11747572_a_at) / Fold change /veh TMPRSS4 (11747572_a_at) / RFU HAMP (11756126_x_at) / Fold change /veh HAMP (11756126_x_at) / RFU RNFT2 (11725882_a_at) / Fold change /veh RNFT2 (11725882_a_at) / RFU NR4A2 (11747474_a_at) / Fold change /veh NR4A2 (11747474_a_at) / RFU ABCC12 (11746883_a_at) / Fold change /veh ABCC12 (11746883_a_at) / RFU TMEM136 (11760407_x_at) / Fold change /veh TMEM136 (11760407_x_at) / RFU CLDN22 /// WWC2 (11732394_at) / Fold change /veh CLDN22 /// WWC2 (11732394_at) / RFU HLA-DPB1 (11760878_x_at) / Fold change /veh HLA-DPB1 (11760878_x_at) / RFU SPINT1 (11716480_a_at) / Fold change /veh SPINT1 (11716480_a_at) / RFU GAP43 (11754022_s_at) / Fold change /veh GAP43 (11754022_s_at) / RFU A4GNT (11735810_at) / Fold change /veh A4GNT (11735810_at) / RFU PRB3 (11715151_x_at) / Fold change /veh PRB3 (11715151_x_at) / RFU TUBB4B (11761932_at) / Fold change /veh TUBB4B (11761932_at) / RFU CAPN14 (11732068_a_at) / Fold change /veh CAPN14 (11732068_a_at) / RFU TMCC2 (11721928_a_at) / Fold change /veh TMCC2 (11721928_a_at) / RFU IRGQ (11745062_a_at) / Fold change /veh IRGQ (11745062_a_at) / RFU FAM174B (11720279_a_at) / Fold change /veh FAM174B (11720279_a_at) / RFU TMPRSS4 (11748680_a_at) / Fold change /veh TMPRSS4 (11748680_a_at) / RFU FAM212B (11763350_a_at) / Fold change /veh FAM212B (11763350_a_at) / RFU PLEKHG5 (11743358_a_at) / Fold change /veh PLEKHG5 (11743358_a_at) / RFU ZSCAN30 (11745921_a_at) / Fold change /veh ZSCAN30 (11745921_a_at) / RFU CMKLR1 (11741424_a_at) / Fold change /veh CMKLR1 (11741424_a_at) / RFU LOC101060620 /// MAPK8IP1 (11723275_at) / Fold change /veh LOC101060620 /// MAPK8IP1 (11723275_at) / RFU SPTSSB (11747773_x_at) / Fold change /veh SPTSSB (11747773_x_at) / RFU PRSS12 (11739890_at) / Fold change /veh PRSS12 (11739890_at) / RFU BIN1 (11741810_x_at) / Fold change /veh BIN1 (11741810_x_at) / RFU WNT11 (11732464_a_at) / Fold change /veh WNT11 (11732464_a_at) / RFU C10orf10 (11716521_a_at) / Fold change /veh C10orf10 (11716521_a_at) / RFU C5orf56 (11738089_at) / Fold change /veh C5orf56 (11738089_at) / RFU CYB561 (11721691_x_at) / Fold change /veh CYB561 (11721691_x_at) / RFU ANKRD19P (11752326_a_at) / Fold change /veh ANKRD19P (11752326_a_at) / RFU OR2T12 /// OR2T33 /// OR2T8 (11738714_s_at) / Fold change /veh OR2T12 /// OR2T33 /// OR2T8 (11738714_s_at) / RFU VCAN (11748164_a_at) / Fold change /veh VCAN (11748164_a_at) / RFU JSRP1 (11732532_at) / Fold change /veh JSRP1 (11732532_at) / RFU KRTAP10-11 (11738290_x_at) / Fold change /veh KRTAP10-11 (11738290_x_at) / RFU MYO3A (11730013_a_at) / Fold change /veh MYO3A (11730013_a_at) / RFU EBF3 (11725865_a_at) / Fold change /veh EBF3 (11725865_a_at) / RFU CAMK2N1 (11719241_x_at) / Fold change /veh CAMK2N1 (11719241_x_at) / RFU C5orf56 (11738088_a_at) / Fold change /veh C5orf56 (11738088_a_at) / RFU OLFML3 (11715873_a_at) / Fold change /veh OLFML3 (11715873_a_at) / RFU LOC100653217 /// NTM (11731650_a_at) / Fold change /veh LOC100653217 /// NTM (11731650_a_at) / RFU MAPK11 (11762145_a_at) / Fold change /veh MAPK11 (11762145_a_at) / RFU FIZ1 (11724087_x_at) / Fold change /veh FIZ1 (11724087_x_at) / RFU OASL (11726364_x_at) / Fold change /veh OASL (11726364_x_at) / RFU SOX15 (11748057_x_at) / Fold change /veh SOX15 (11748057_x_at) / RFU CD79A (11719716_a_at) / Fold change /veh CD79A (11719716_a_at) / RFU HIST1H1D (11736915_at) / Fold change /veh HIST1H1D (11736915_at) / RFU CASKIN2 (11723855_a_at) / Fold change /veh CASKIN2 (11723855_a_at) / RFU LOC730098 (11760151_x_at) / Fold change /veh LOC730098 (11760151_x_at) / RFU OR4N2 (11742367_at) / Fold change /veh OR4N2 (11742367_at) / RFU PRRT2 (11749266_a_at) / Fold change /veh PRRT2 (11749266_a_at) / RFU SNX32 (11753110_a_at) / Fold change /veh SNX32 (11753110_a_at) / RFU CDHR5 (11726645_a_at) / Fold change /veh CDHR5 (11726645_a_at) / RFU RCAN1 (11760418_a_at) / Fold change /veh RCAN1 (11760418_a_at) / RFU FAM167A (11723789_a_at) / Fold change /veh FAM167A (11723789_a_at) / RFU FAM26E (11764081_at) / Fold change /veh FAM26E (11764081_at) / RFU ISYNA1 (11749810_s_at) / Fold change /veh ISYNA1 (11749810_s_at) / RFU ACY1 (11761880_at) / Fold change /veh ACY1 (11761880_at) / RFU 11764098_at / Fold change /veh 11764098_at / RFU SAMD14 (11745864_x_at) / Fold change /veh SAMD14 (11745864_x_at) / RFU NPB (11741838_a_at) / Fold change /veh NPB (11741838_a_at) / RFU TMPRSS6 (11731388_a_at) / Fold change /veh TMPRSS6 (11731388_a_at) / RFU KRTAP10-2 (11738614_at) / Fold change /veh KRTAP10-2 (11738614_at) / RFU ARHGAP8 /// PRR5-ARHGAP8 (11727945_x_at) / Fold change /veh ARHGAP8 /// PRR5-ARHGAP8 (11727945_x_at) / RFU KRTAP5-7 /// NADSYN1 (11734609_at) / Fold change /veh KRTAP5-7 /// NADSYN1 (11734609_at) / RFU RASL12 (11751679_a_at) / Fold change /veh RASL12 (11751679_a_at) / RFU CDKN2B (11736163_a_at) / Fold change /veh CDKN2B (11736163_a_at) / RFU PRF1 (11729649_at) / Fold change /veh PRF1 (11729649_at) / RFU, ZNF638 /// ZNF638-IT1 / Fold change vs veh, ZNF638 /// ZNF638-IT1 / RFU, PANK3 / Fold change vs veh, PANK3 / RFU, SH3YL1 / Fold change vs veh, SH3YL1 / RFU, ZEB2 / Fold change vs veh, ZEB2 / RFU, NRIP1 / Fold change vs veh, NRIP1 / RFU, PTTG1IP / Fold change vs veh, PTTG1IP / RFU, CAPN2 / Fold change vs veh, CAPN2 / RFU, MED14 / Fold change vs veh, MED14 / RFU, SNORA58 / Fold change vs veh, SNORA58 / RFU, C1orf63 / Fold change vs veh, C1orf63 / RFU, LRRFIP1 / Fold change vs veh, LRRFIP1 / RFU, NDUFAF7 / Fold change vs veh, NDUFAF7 / RFU, SLC12A2 / Fold change vs veh, SLC12A2 / RFU, IBTK / Fold change vs veh, IBTK / RFU, ESF1 / Fold change vs veh, ESF1 / Fold change vs veh, TMEM50B / RFU, TAOK1 / Fold change vs veh, TAOK1 / RFU, ACBD3 / Fold change vs veh, ACBD3 / RFU, TMA16 / Fold change vs veh, TMA16 / RFU, RWDD3 / Fold change vs veh, RWDD3 / RFU, BCAT1 / Fold change vs veh, BCAT1 / RFU, EDEM3 / Fold change vs veh, EDEM3 / RFU, TMEM33 / Fold change vs veh, TMEM33 / RFU, WDR75 / Fold change vs veh, WDR75 / RFU, AHCTF1 / Fold change vs veh, AHCTF1 / RFU, TFRC / Fold change vs veh, TFRC / RFU, ZDHHC17 / Fold change vs veh, ZDHHC17 / RFU, NOM1 / Fold change vs veh, NOM1 / RFU, ARL8B / Fold change vs veh, ARL8B / RFU, ZBTB11 / Fold change vs veh, ZBTB11 / RFU, TAMM41 / Fold change vs veh, TAMM41 / RFU, KIAA1704 /// LOC100996395 / Fold change vs veh, KIAA1704 /// LOC100996395 / RFU, ING1 / Fold change vs veh, ING1 / RFU, TRMT61B / Fold change vs veh, TRMT61B / RFU, FUBP3 / Fold change vs veh, FUBP3 / RFU, TP53 / Fold change vs veh, TP53 / RFU, TNKS2 / Fold change vs veh, TNKS2 / RFU, ZFP14 / Fold change vs veh, ZFP14 / RFU, ACTR2 / Fold change vs veh, ACTR2 / RFU, PPP3R1 / Fold change vs veh, PPP3R1 / RFU, PIK3R1 / Fold change vs veh, PIK3R1 / RFU, HNRNPA1 / Fold change vs veh, HNRNPA1 / RFU, RNF170 / Fold change vs veh, RNF170 / RFU, ZNF28 / Fold change vs veh, ZNF28 / RFU, RNGTT / Fold change vs veh, RNGTT / RFU, OGT / Fold change vs veh, OGT / RFU, BRD1 / Fold change vs veh, BRD1 / RFU, MARS / Fold change vs veh, MARS / RFU, ZNF655 / Fold change vs veh, ZNF655 / RFU, FAHD1 / Fold change vs veh, FAHD1 / RFU, BDP1 / Fold change vs veh, BDP1 / RFU, LRRCC1 / Fold change vs veh, LRRCC1 / RFU, ARID1A / Fold change vs veh, ARID1A / RFU, ZNF146 / Fold change vs veh, ZNF146 / RFU, ZNF330 / Fold change vs veh, ZNF330 / RFU, GPN3 / Fold change vs veh, GPN3 / RFU, C9orf123 / Fold change vs veh, C9orf123 / RFU, N4BP2L2 / Fold change vs veh, N4BP2L2 / RFU, ARFIP1 / Fold change vs veh, ARFIP1 / RFU, FAM179B / Fold change vs veh, FAM179B / RFU, BCL10 / Fold change vs veh, BCL10 / RFU, UHRF1BP1L / Fold change vs veh, UHRF1BP1L / RFU, BET1 / Fold change vs veh, BET1 / RFU, CNOT2 / Fold change vs veh, CNOT2 / RFU, ZNF268 / Fold change vs veh, ZNF268 / Fold change vs veh, ZNF507 / RFU, DGCR2 / Fold change vs veh, DGCR2 / RFU, WDSUB1 / Fold change vs veh, WDSUB1 / Fold change vs veh, HSP90B1 /// MIR3652 / RFU, ADSS / Fold change vs veh, ADSS / RFU, GK / Fold change vs veh, GK / RFU, ZNF148 / Fold change vs veh, ZNF148 / RFU, TAF9 / Fold change vs veh, TAF9 / RFU, SLC1A5 / Fold change vs veh, SLC1A5 / RFU, SLMO2 / Fold change vs veh, SLMO2 / RFU, ABCC4 / Fold change vs veh, ABCC4 / RFU, LOC101060439 /// RAP1B / Fold change vs veh, LOC101060439 /// RAP1B / RFU, RFX7 / Fold change vs veh, RFX7 / RFU, GTPBP10 / Fold change vs veh, GTPBP10 / RFU, CNEP1R1 / Fold change vs veh, CNEP1R1 / RFU, BIVM-ERCC5 /// ERCC5 / Fold change vs veh, BIVM-ERCC5 /// ERCC5 / RFU, ILF3 / Fold change vs veh, ILF3 / RFU 11762660_at / Fold change /veh 11762660_at / RFU VCAN (11757783_s_at) / Fold change /veh VCAN (11757783_s_at) / RFU DDX43 (11728927_at) / Fold change /veh DDX43 (11728927_at) / RFU KRT8 (11758188_x_at) / Fold change /veh KRT8 (11758188_x_at) / RFU NKD1 (11759106_at) / Fold change /veh NKD1 (11759106_at) / RFU SRD5A1 (11742802_a_at) / Fold change /veh SRD5A1 (11742802_a_at) / RFU TPSAB1 /// TPSB2 (11721975_s_at) / Fold change /veh TPSAB1 /// TPSB2 (11721975_s_at) / RFU GSTM3 (11746129_a_at) / Fold change /veh GSTM3 (11746129_a_at) / RFU IL23R (11737362_x_at) / Fold change /veh IL23R (11737362_x_at) / RFU TMEM51 (11727254_a_at) / Fold change /veh TMEM51 (11727254_a_at) / RFU PIWIL2 (11732686_x_at) / Fold change /veh PIWIL2 (11732686_x_at) / RFU ORM1 (11744905_x_at) / Fold change /veh ORM1 (11744905_x_at) / RFU CCDC152 (11743942_at) / Fold change /veh CCDC152 (11743942_at) / RFU ECM1 (11717891_a_at) / Fold change /veh ECM1 (11717891_a_at) / RFU IL23R (11748794_a_at) / Fold change /veh IL23R (11748794_a_at) / RFU TNFAIP8L3 (11732012_x_at) / Fold change /veh TNFAIP8L3 (11732012_x_at) / RFU MBOAT4 (11741988_at) / Fold change /veh MBOAT4 (11741988_at) / RFU 11764193_at / Fold change /veh 11764193_at / RFU TMEM53 (11763286_at) / Fold change /veh TMEM53 (11763286_at) / RFU MAGEB2 (11727129_at) / Fold change /veh MAGEB2 (11727129_at) / RFU TMEM200A (11744735_a_at) / Fold change /veh TMEM200A (11744735_a_at) / RFU CCDC152 (11751479_a_at) / Fold change /veh CCDC152 (11751479_a_at) / RFU FAM211A (11726209_a_at) / Fold change /veh FAM211A (11726209_a_at) / RFU RGS16 (11746705_a_at) / Fold change /veh RGS16 (11746705_a_at) / RFU VCAN (11755009_s_at) / Fold change /veh VCAN (11755009_s_at) / RFU RHOB (11743442_s_at) / Fold change /veh RHOB (11743442_s_at) / RFU RGS16 (11720943_a_at) / Fold change /veh RGS16 (11720943_a_at) / RFU RGS16 (11720944_at) / Fold change /veh RGS16 (11720944_at) / RFU, VPS4B / Fold change vs veh, VPS4B / RFU, CREB1 / Fold change vs veh, CREB1 / RFU, DNAJC13 / Fold change vs veh, DNAJC13 / RFU, GNAQ / Fold change vs veh, GNAQ / RFU, CDK5R1 / Fold change vs veh, CDK5R1 / RFU, ZRANB3 / Fold change vs veh, ZRANB3 / RFU, CUL4A / Fold change vs veh, CUL4A / RFU, CCNY / Fold change vs veh, CCNY / RFU, UFL1 / Fold change vs veh, UFL1 / RFU, COG3 / Fold change vs veh, COG3 / RFU, DIAPH2 / Fold change vs veh, DIAPH2 / RFU, SKA2 / Fold change vs veh, SKA2 / RFU, AFF3 / Fold change vs veh, AFF3 / RFU, LMF1 / Fold change vs veh, LMF1 / RFU, IPO11 / Fold change vs veh, IPO11 / RFU, DFFB / Fold change vs veh, DFFB / RFU, FOXP1 / Fold change vs veh, FOXP1 / RFU, CARD8 / Fold change vs veh, CARD8 / RFU, STRN3 / Fold change vs veh, STRN3 / RFU, ADK / Fold change vs veh, ADK / RFU, RASSF2 / Fold change vs veh, RASSF2 / RFU, WIPF1 / Fold change vs veh, WIPF1 / RFU, LARP1B / Fold change vs veh, LARP1B / RFU, RASA1 / Fold change vs veh, RASA1 / RFU, RB1 / Fold change vs veh, RB1 / RFU, PPFIA1 / Fold change vs veh, PPFIA1 / RFU, MAT2A / Fold change vs veh, MAT2A / RFU, CCT5 / Fold change vs veh, CCT5 / RFU, WDR92 / Fold change vs veh, WDR92 / RFU, CUX1 / Fold change vs veh, CUX1 / RFU, TTC7A / Fold change vs veh, TTC7A / RFU, TMEM135 / Fold change vs veh, TMEM135 / RFU, DEPTOR / Fold change vs veh, DEPTOR / RFU, CPM / Fold change vs veh, CPM / RFU, DNAJB6 / Fold change vs veh, DNAJB6 / RFU, CACNA2D3 / Fold change vs veh, CACNA2D3 / RFU, DTX4 / Fold change vs veh, DTX4 / RFU, TFCP2 / Fold change vs veh, TFCP2 / RFU, GMCL1 /// GMCL1P1 / Fold change vs veh, GMCL1 /// GMCL1P1 / RFU, AEBP2 / Fold change vs veh, AEBP2 / RFU, SNHG1 /// SNORD22 /// SNORD25 /// SNORD26 /// SNORD27 /// SNORD28 /// SNORD29 /// SNORD31 / Fold change vs veh, SNHG1 /// SNORD22 /// SNORD25 /// SNORD26 /// SNORD27 /// SNORD28 /// SNORD29 /// SNORD31 / Fold change (Aza/veh), C12orf56 (ProbeSet 11735607_a_at) / Fold change (ACY-1035/veh), C12orf56 (ProbeSet 11735607_a_at) / Fold change (Aza/veh), FGFR1OP (ProbeSet 11751329_s_at) / Fold change (ACY-1035/veh), FGFR1OP (ProbeSet 11751329_s_at) / Fold change (Aza/veh), VPS36 (ProbeSet 11739960_a_at) / Fold change (ACY-1035/veh), VPS36 (ProbeSet 11739960_a_at) / RFU SYPL1 (11715823_x_at) / Fold change /veh SYPL1 (11715823_x_at) / RFU IGFBP7 (11715501_s_at) / Fold change /veh IGFBP7 (11715501_s_at) / RFU REEP3 (11722064_at) / Fold change /veh REEP3 (11722064_at) / RFU IGLL1 (11728026_x_at) / Fold change /veh IGLL1 (11728026_x_at): dose or concentration left out as unconfirmed
Conditions: ProbeSet 11719632_a_at; LIST B

Nc1ncn([C@@H]2O[C@H](CO)[C@@H](O)[C@H]2O)c(=O)n1 [azacitidine]
RFU, ABCC4: 39.11 RFU
